Results from article PMC9506414, “Novel 2,6,9-Trisubstituted Purines as Potent CDK Inhibitors Alleviating Trastuzumab-Resistance of HER2-Positive Breast Cancers” (Pharmaceuticals, 2022).
Where two headings read alike, the source gives them in different places.

How the values were obtained:
cyclinK [1] = experiment: Western blot of cyclinK in SK-Br3 cells; assay type: cell-based, human; conditions: 2 h
Protocol: (§1) The proteins were transferred to nitrocellulose membrane (Gelman Sciences, Ann Arbor, MI, USA) by electroblotting. The membranes were blocked with 5% non-fat dry milk (MB Cell, Seoul, Korea), incubated with primary antibodies for overnight at 4 °C. After the washing steps were performed with TBST solution, the membranes were incubated with HRP-conjugated secondary antibodies for 1 h at rt. After the secondary washing steps using TBST solution, protein bands on the membranes were visualized using enhanced chemiluminescence ECL detection reagent (Biorad Laboratories, Hercules, CA, USA).

CYP1A2 = target: T1, CYP1A2 (Homo sapiens, UniProt P05177); experiment: CYP inhibition; assay type: in vitro ADME
T1 sequence (P05177 1-516): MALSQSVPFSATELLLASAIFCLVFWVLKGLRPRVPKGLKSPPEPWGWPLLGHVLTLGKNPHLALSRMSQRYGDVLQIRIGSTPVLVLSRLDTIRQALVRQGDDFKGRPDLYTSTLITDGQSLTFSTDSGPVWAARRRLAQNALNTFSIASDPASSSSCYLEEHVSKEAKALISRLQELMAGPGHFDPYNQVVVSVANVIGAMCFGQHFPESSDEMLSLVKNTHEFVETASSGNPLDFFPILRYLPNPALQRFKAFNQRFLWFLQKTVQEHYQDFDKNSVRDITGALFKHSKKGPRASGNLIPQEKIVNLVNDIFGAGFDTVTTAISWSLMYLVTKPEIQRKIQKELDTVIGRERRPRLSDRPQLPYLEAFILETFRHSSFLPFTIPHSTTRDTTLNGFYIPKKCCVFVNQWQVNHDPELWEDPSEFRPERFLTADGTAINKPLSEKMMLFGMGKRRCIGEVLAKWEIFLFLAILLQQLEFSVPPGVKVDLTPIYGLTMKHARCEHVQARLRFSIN
Protocol: Table 6 In vitro liver metabolic stability and activity against CYPs of potent analogues. | column: CYP % Activity at 10 μM / 1A2

CYP2C9 = CYP2C9 (Homo sapiens, UniProt P11712); experiment: CYP inhibition; assay type: in vitro ADME
Protocol: Table 6 In vitro liver metabolic stability and activity against CYPs of potent analogues. | column: CYP % Activity at 10 μM / 2C9

cyclinK [2] = experiment: Western blot of cyclinK in HCC1954 cells; assay type: cell-based, human; conditions: 40 and 200 nM (dinaciclib 40 nM), 2 h
Protocol: as §1

Pol II p-CTD (Ser2) [3] = experiment: Western blot of Pol II p-CTD (Ser2) in HCC1954 cells; assay type: cell-based, human; conditions: 40 and 200 nM (dinaciclib 40 nM), 2 h
Source text: (§2) For Western blot analysis, the following antibodies were used: anti-Pol II CTD (2629S, Cell Signaling Technology, Danvers, MA, USA), anti-Pol II p-CTD (Ser2) (13499S, Cell Signaling Technology), anti-cyclinK (A301-939A-M, Bethyl Laboratories), anti-IRS1 (3407S, Cell Signaling Technology), anti-WNT1 (SC-514531, Santa Cruz Biotechnology, Dallas, TX, USA), anti-β-actin (MAB1501R, Millipore, Burlington, MA, USA), and horseradish peroxidase (HRP)-conjugated secondary antibodies (anti-mouse GTX213112-01; anti-rabbit GTX213110-01) (Genetex, Irvine, CA, USA).
as §1, with “Cells were lysed with lysis buffer containing 50 mM Tris pH 7.4, 150 mM NaCl, 1 mM EDTA, 1% NP-40, and 0.25% sodium deoxycholate supplemented with protease-inhibitor and phosphatase-inhibitor cocktails. The lysate samples (25 μg/lane) were loaded onto 6–12% sodium dodecyl sulfate polyacrylamide gel and separated by electrophoresis (SDS-PAGE). The proteins” for “The proteins”

[4] = In vitro liver microsomal stability; assay type: in vitro ADME; conditions: liver microsomes, pH 7.4, 30 m at 37 °C with NADPH regeneration system
Protocol: Each compound (final 1 μM, duplicated) was added to each 0.1 M PBS solution (pH 7.4) containing liver microsome of three different species (human, dog, mouse). After a brief (5 m) incubation at 37 °C, the NADPH regeneration system (Promega Corp., Madison, WI, USA) was added, then the mixture was incubated at 37 °C for 30 m. The reaction was terminated by adding acetonitrile containing an internal standard (chlorpropamide), then the mixture was centrifuged at 15,000 rpm, 4 °C for 5 m. The supernatant solution was injected to LC/MS/MS system (TSQ Vantage Triple-Stage Quadrupole Mass Spectrometer, ThermoFisher Scientific, Waltham, MA, USA). The remaining substrates were analyzed with Xcalibur 4.4 s/w using an MRM (multiple reaction monitoring) quantitation mode.

Pol II p-CTD (Ser2) [5] = experiment: Western blot of Pol II p-CTD (Ser2) in SK-Br3 cells; assay type: cell-based, human; conditions: 2 h
Source text: as §2
as §1, with “Cells were lysed with lysis buffer containing 50 mM Tris pH 7.4, 150 mM NaCl, 1 mM EDTA, 1% NP-40, and 0.25% sodium deoxycholate supplemented with protease-inhibitor and phosphatase-inhibitor cocktails. The lysate samples (25 μg/lane) were loaded onto 6–12% sodium dodecyl sulfate polyacrylamide gel and separated by electrophoresis (SDS-PAGE). The proteins” for “The proteins”

HCC1954 cells = experiment: Antiproliferation assay (Cell-titer Glo, 72 h); assay type: cell-based; conditions: Homo sapiens
Method in brief: (§3)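 Cells in RPMI/10% FBS were seeded at 5000 (SK-Br3) or 1000 (HCC-1954) per well and allowed 24 h to settle. Compounds were pin-transferred as 3-fold, 10-point duplicate series from a 10 mM stock and incubated 72 h at 37 °C. Viability was read by CellTiter-Glo luminescence and IC50 obtained by curve fitting.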

SK-Br3 cells = experiment: Antiproliferation assay (Cell-titer Glo, 72 h); assay type: cell-based; conditions: Homo sapiens, SK-BR-3
Method in brief: as §3

[6] = SK-Br3 cells, 40 and 200 nM (dinaciclib 40 nM)
[7] = 72 h, means and standard deviations from three independent assays, read-out: HCC1954 (GI50/μM)
[8] = 72 h, means and standard deviations from three independent assays, read-out: SK-Br3 (GI50/μM)

Sequence of CYP2C9 (P11712 whole entry): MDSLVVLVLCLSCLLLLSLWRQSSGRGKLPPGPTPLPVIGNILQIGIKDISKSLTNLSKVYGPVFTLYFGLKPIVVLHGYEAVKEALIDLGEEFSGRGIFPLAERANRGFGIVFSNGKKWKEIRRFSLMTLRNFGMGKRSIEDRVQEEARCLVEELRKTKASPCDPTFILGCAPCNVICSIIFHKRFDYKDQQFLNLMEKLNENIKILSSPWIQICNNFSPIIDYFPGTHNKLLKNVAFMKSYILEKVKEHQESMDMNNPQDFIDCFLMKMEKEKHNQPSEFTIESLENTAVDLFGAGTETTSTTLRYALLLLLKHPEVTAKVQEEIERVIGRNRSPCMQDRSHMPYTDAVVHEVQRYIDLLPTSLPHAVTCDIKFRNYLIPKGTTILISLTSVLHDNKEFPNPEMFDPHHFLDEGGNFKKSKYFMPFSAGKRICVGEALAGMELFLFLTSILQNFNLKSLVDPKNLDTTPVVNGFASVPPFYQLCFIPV

| SMILES | cyclinK level (Western blot) (cyclinK [1]; [6]) | CYP % Activity at 10 μM 1A2 (CYP1A2) [%] | CYP % Activity at 10 μM 2C9 (CYP2C9) [%] | cyclinK level (Western blot) (cyclinK [2]) | PolII p-CTD (Ser2) level (Western blot) (Pol II p-CTD (Ser2) [3]) | remaining at 30 min, 1 μM ([4]; dog) [%] | remaining at 30 min, 1 μM ([4]; human) [%] | remaining at 30 min, 1 μM ([4]; mouse) [%] | PolII p-CTD (Ser2) level (Western blot) (Pol II p-CTD (Ser2) [5]; [6]) | GI50 (HCC1954 cells; [7]) [µM] | GI50 (HCC1954 cells; read-out: HCC1954 GI50) [µM] | GI50 (SK-Br3 cells; [8]) [µM] | GI50 (SK-Br3 cells; read-out: SK-Br3 GI50) [µM] | cyclinK level (Western blot) (cyclinK [1]; SK-Br3 cells, 0.2, 1 μM) | PolII p-CTD (Ser2) level (Western blot) (Pol II p-CTD (Ser2) [5]; SK-Br3 cells, 0.2, 1 μM) |
| --- | --- | --- | --- | --- | --- | --- | --- | --- | --- | --- | --- | --- | --- | --- | --- |
| CCn1cnc2c(NCc3ccc(-c4ccccn4)nc3)nc(-c3cnc(N)nc3)nc21 [Compound 30e, N-([2,2′-Bipyridin]-5-ylmethyl)-2-(2-aminopyrimidin-5-yl)-9-ethyl-9H-purin-6-amine] | greatly downregulated in a dose-dependent manner | 87.6 | 81.6 | greatly downregulated in a dose-dependent manner | strong, dose-dependent suppression | 67.6 | 100 | 85 | strong, dose-dependent suppression | 0.034 ± 0.002 | 0.034 to 0.036 | 0.052 ± 0.003 | 0.046 to 0.052 | – | – |
| CCc1cnn2c(NCc3ccc[n+]([O-])c3)cc(N3CCCC[C@H]3CCO)nc12 [Dinaciclib] | only a marginal downregulation of cyclinK | – | – | only a marginal downregulation of cyclinK | more potent inhibition of PolII CTD phosphorylation | – | – | – | more potent inhibition of PolII CTD phosphorylation | 0.012 ± 0.001 | – | 0.012 ± 0.001 | – | marginal activity in downrgulating cyclinK | strongly suppressed PolII p-CTD |
| CCn1cnc2c(NCc3ccc(-c4ccccn4)nc3)nc(-c3ccc(N)nc3)nc21 [Compound 30d, N-([2,2′-Bipyridin]-5-ylmethyl)-2-(6-aminopyridin-3-yl)-9-ethyl-9H-purin-6-amine] | greatly downregulated in a dose-dependent manner | 74.7 | 57.9 | greatly downregulated in a dose-dependent manner | strong, dose-dependent suppression | 46.2 | 64.8 | 49.9 | strong, dose-dependent suppression | 0.036 ± 0.005 | 0.034 to 0.036 | 0.046 ± 0.007 | 0.046 to 0.052 | – | – |
